Key:
[1] = tested on: mammary cancer (tubulo-pillaryadenocarcinoma or mixed-type tumour); assay: Gallium chloride therapy in bitches with mammary cancer (primary tumour or recurrence); format: in vivo, female dogs
Method: (§1) The anti-tumoral effect of gallium chloride was firstly studied in female dogs having spontaneous malignant tumours of the breast. Gallium chloride therapy was carried out in bitches having a mammary cancer (tubulo-pillaryadenocarcinoma or mixed-type tumour); treatment started either at the stage of the primary tumour (4 bitches) or upon a recurrence after a surgical excision (10 bitches).
(1) In the 4 bitches treated at the primary tumour stage, the following was observed:
In two cases, the treatment was continued for two months, the tumour reducing from 10×7 cm to 8.5×7 cm in one case and from 1.5×1.3 to 1.5×1.0 cm in the other case.
(§2) In the third case, the treatment could be continued for more than six months in a very old bitch of 14 years.
(2) In the 10 bitches treated at the recurrence stage, the following was observed: […]

adenocarcinoma = assay: Long-term treatment of two bitches with evolutive third recurrence of mammary tumour; format: in vivo, female dogs
[2] = Clinical, renal and biological tolerance in bitches; format: in vivo, female dogs
Method: as §1, §2
Posology of gallium chloride, per os: 7.5 mg/kg from 15.4.1981 to 14.9.1981, then 10 mg/kg.

[3] = tested on: bilateral cystadenocarcinoma of the ovary; assay: 1st patient: gallium chloride treatment, tumour response; format: in vivo, human
Method: Mrs. […] An epiploic and ganglionary invasion was discovered. Cobalt therapy was then carried out from Nov. 5th, 1979 to Feb. […] Treatment by gallium chloride started on Nov. […] An echotomograph on Dec. […] A third echotomograph was made on Jan. […] However, this was refused by the patient. On Mar.

malignant melanoma = assay: 3rd patient: gallium chloride treatment, tumour response; format: in vivo, human
Description: On Sept. […] This was the case. . . […] Up to Nov. […] It was from Sept.

[4] = tested on: adenocarcinoma of the colon; assay: 4th patient: gallium chloride treatment, tumour response; format: in vivo, human
Description: (§3) A person . . . […] On Oct. […] An exploratory laparotomy was made on Nov. […] 7th, 1982.

[5] = tested on: epidermoid carcinoma of the oesophagus; assay: 5th patient: gallium chloride treatment, tumour response; format: in vivo, human
Description: A person . . . Michel: the diagnosis of differenciated, mature and infiltrating epidermoid carcinoma of the oesophagus was made on Sept. 3rd, 1981. This was a voluminous tumour, extending from 23 to 32 cm, from the dental arches (according to the data from the endoscopy) with an invasion of the rear face of the origin of the left principal bronchus and the carina tracheae. In the bronchoscopy of Sept. 8th, 1981, there was a necrotic tumoral bud obstructing the light of the bronchus by two-thirds.
Gallium chloride therapy was started on Sept.
A further bronchoscopy was made on Oct. […] The existence of a considerable sub-jacent bronchial stasis and of daily dispnoeic attacks in the evening led to treatment of this bronchial tumour by laser on Oct. 20th, 1981. […] Feeding by the oral route was stopped, as well as the gallium chloride treatment and, after parenteral feeding, a celestine prosthesis was positioned by endoscopic route on Nov. 3rd, 1981. The sequels of the positioning of the prosthesis was marked by the appearance of an infectious bronchial syndrome which led to death of the patient on Nov. 18th, 1981.

globular Mg = assay: Globular Mg rates in patients in the course of treatment; format: in vivo, human
Description: The importance of checking the globular Mg rates was furthermore clearly illustrated by the following two observations (3rd and 4th patients).
On Sept. […] This was the case. . . […] 29th, 1981. This posology was tolerated up to Nov. […] Up to Nov. […] It was from Sept.
as §3
FIGS. 1, 2 and 3 show the curves of the globular Mg (1) and plasmatic Mg (2) rates as a function of time in the course of treatment by gallium chloride (the starting point of the curves corresponding to the first administration) of the three patients. A person […] (1st patient, […] (3rd Patient) and a person […] (4th patient, respectively.
To follow the globular Mg rates, the dosages must be frequent and repeated, about once a week. In fact, there are cyclic variations of the globular Mg rates with a curve of sinusoidal appearance, and the period of these cycles, like the importance of the globular Mg rates, are a function of the evolutive potential of the malignant tumour (P. COLLERY et col. "Role of Magnesium in the Development of Cancer", Trace Substances in Environmental Health, XII, 1978--A Symposium--University of Missouri--Columbia). The appearance of this curve is modified, as indicated above, by the anti-tumoral therapy by gallium chloride.

[6] = tested on: left axillary lymphadenopathy; assay: 2nd patient: gallium chloride treatment, tumour response
Description: A complete check-up to seek primary localisation was undertaken. In view of the negative nature of this check-up, the diagnosis of cutaneous primary tumour, developed at the expense of the cutaneous appendants (eccrine tumour) was retained.

[7] = therapy continued up to Nov. 10th, 1981

## [Cl][Ga]([Cl])[Cl] [gallium chloride]
[1]; 5 mg/kg, if duration of treatment extended
  results in mammary tumours in the bitch: good results
[1]; 5 mg/kg, tumour becomes very hard
  regression of the tumour, overall: Regression of the tumour remains weak
[1]; 4 bitches treated at primary tumour stage
  regression of the tumour (primary tumour stage): a regression of the tumour in the other three cases
[1]; 4 bitches treated at primary tumour stage, 1 to 5 mg/kg oral
  death (primary tumour stage): one death on the 7th day
[1]; 10 bitches at recurrence stage, recurrent tumour smaller than 0.6 cm at beginning, two months of treatment
  complete remission: three complete remissions after two months of treatment
[1]; 10 bitches at recurrence stage, three months of treatment
  partial regression of the tumour: in 5 bitches, a partial regression of the tumour with hardening thereof
[1]; 10 bitches treated at recurrence stage
  death (recurrence stage): one death in the third week of treatment, due to a pulmonary metastasis
[1]; recurrence stage
  biopsies / histology at the end of the treatment: tumoral cells persisted, but a histological study suggested an increase in the amorphous ground substance with a cellular rarefaction
[1]; recurrence stage, 1 mg/kg one month, 2.5 mg/kg fifteen days, 5 mg/kg last fifteen days
  tumour growth in one bitch: persistent growth of the tumour in one bitch
[1]; therapeutic strategy with surgical treatment after gallium chloride
  survival: seven out of eight bitches are alive
[1]; third case, bitch of 14 years, 2.5 mg/kg, then 1 mg/kg
  tumour response after resumption of the treatment: regressed after resumption of the treatment
[1]; third case, bitch of 14 years, 5 mg/kg, tumour 3.6×2 cm, doubled in four months preceding treatment
  tumour development during first two months of treatment: did not develop
adenocarcinoma; 2.5 mg/kg per os from 27.2.1981, 1.2 cm on 2.27.1981
  size of the tumour, second bitch (BEL), 4.1.1981: 1.8 cm in diameter
adenocarcinoma; 2.5 mg/kg per os to 30.4.1981
  size of the tumour, second bitch (BEL), 4.30.1981: 2.3 cm in diameter
adenocarcinoma; 10 mg/kg per os, up to Dec. 28th, 1981
  tumour evolution after 10.14.1981, first bitch (OUD): tumoral stabilisation
adenocarcinoma; 5.1.1982
  pulmonary radiograph, second bitch (BEL): normal
adenocarcinoma; Dec. 28th, 1981, good general state during preceding days
  death, first bitch (OUD): suddenly died (good general state during the preceding days) of a myocardial infarction with acute oedema of the lung and overall heart failure
adenocarcinoma; after death Dec. 28th, 1981
  autopsy, first bitch (OUD): no hepatic nor pulmonary metastases a small nodule of 1 cm in the spleen
adenocarcinoma; per os
  tumour growth after 9.1.1981, second bitch (BEL): the growth clearly slowed down with an obvious change in the consistency of the tumour
adenocarcinoma; up to surgical excision
  tumour growth since Nov. 3rd, 1981, second bitch (BEL): virtually not enlarged since Nov. 3rd, 1981
adenocarcinoma; upon opening of excised tumour
  excised piece, second bitch (BEL): considerable necrosis occupying virtually all the tumour
[2]; 5 mg/kg
  clinical and biological tolerance, bitches overall: excellent
[2]; 7.5 mg/kg then 10 mg/kg per os
  clinical and renal tolerance, first bitch (OUD): perfect
[2]; 2.5, 5, then 7 mg/kg per os
  clinical and renal tolerance, second bitch (BEL): perfect
[2]; dog, in vivo, 5 mg/kg
  dyspnoea leading to stop of treatment: treatment was stopped for one month due to a dyspnoea
[2]; oral, drinkable ampoules, first bitches 1 mg/kg, particularly digestive
  tolerance, bitches: tolerance proved to be good, particularly from the digestive point of view
[3]; 300 mg per day per os
  clinical state, end of January 1981: very satisfactory
  superficial palpable mass, end of January 1981: had disappeared
  volume of the mass of the Douglas pouch, echotomograph Jan. 7th, 1981: clearly decreased
[3]; 300 mg per day per os from Nov. 1st, 1980, 3.5 cm on Oct. 27th
  mass of the Douglas pouch, echotomograph Dec. 9th, 1980: maintained the same diameter
[3]; 300 mg per day per os, 4.4 by 3 cm before treatment
  superficial mass / tissue of infiltration, echotomograph Dec. 9th, 1980: the tissue of infiltration had become a sclerous tissue
[3]; after interruption of gallium chloride
  death, 1st patient: death occurred on May 6th, 1981
Malignant melanoma; 600 mg/24 hours with Calciparin
  general state up to Sept. 20th, 1981, 3rd patient: satisfactory, with a good appetite
Malignant melanoma; gallium chloride increased to 800 mg/24 hours from Sept. 29th, 1981
  general state / metastases after Calciparin interruption, 3rd patient: general state rapidly worsened, with appearance of a metastatic hepatomegaly of which the volume increased rapidly
[4]; 300 ng per day (so in the source), up to Nov. 10th, 1981
  prevention of recurrence, 4th patient: insufficient
[4]; 300 mg/24 hours oral
  carcinoembryonic antigen rates, 4th patient, Oct. 15th, 1981: 9 ng/mL
[4]; 500 then 300 mg/24 hours oral
  carcinoembryonic antigen rates, first 4 months, 4th patient: normal
  general state, first 4 months, 4th patient: very satisfactory
[4]; Nov. 12th, 1981
  exploratory laparotomy, 4th patient: an indissectable ileomesenteric block and hepatic granulations distributed like grains of rice over the whole of the two lobes of the liver
[4]; [7]
  carcinoembryonic antigen rates, 4th patient, Nov. 26th, 1981: 97 ng/mL
  death, 4th patient: death occured on Jan. 7th, 1982
[5]; 800 mg/24 hours oral from Sept. 21st, 1981
  bronchial obstruction, bronchoscopy Oct. 13th, 1981, 5th patient: the same bronchial obstruction
[5]; infectious bronchial syndrome after prosthesis, treatment already stopped
  death, 5th patient: death of the patient on Nov. 18th, 1981
Globular Mg; 300 mg/24 hours oral
  globular magnesium rates, 4th patient, Oct. 15th, 1981: 3.00 mmol/L
Globular Mg; 800 mg/24 hours, after heparinotherapy stopped
  globular magnesium rates, 3rd patient, Oct. 6th, 1981: 2.96 mmol/L
Globular Mg; 1st, 3rd and 4th patients, when treatment is efficacious
  globular magnesium rates, curves of FIGS. 1-3: decrease
Globular Mg; 500 then 300 mg/24 hours oral
  globular Mg rates, first 4 months, 4th patient: normal
Globular Mg; human, in vivo
  correlation between clinical state, carcinoembryonic antigen and globular magnesium rates, 4th patient: could be emphasized
[6]; 300 mg per day oral
  hardness of lymphadenopathy, July 23rd, 1981: much harder
[6]; 600 mg and 300 mg alternately, oral
  lymphadenopathy, Jan. 6th, 1982: no longer perceptible
[6]; 600 mg per day oral
  diameter of lymphadenopathy, Dec. 8th, 1981: 1 cm in diameter
[6]; Jan. 6th, 1982
  dorsal osseous pains, 2nd patient: dorsal osseous pains persisted, but of mechanical type, completely calmed by rest
[6]; oral from May 20th, 1981, from end of July 1981
  regression of the lymphadenopathy: progressive regression of the lymphadenopathy
